From ChEMBL document CHEMBL5500377, “Design, synthesis and molecular modeling of novel D-ring substituted steroidal 4,5-dihydropyrazole thiazolinone derivatives as anti-inflammatory agents by inhibition of COX-2/iNOS production and down-regulation of NF-κB/MAPKs in LPS-induced RAW264.7 macrophage cells” (Eur J Med Chem, 2024)

Columns and labels:
[1] = Cytotoxicity against mouse RAW264.7 cells assessed as cell viability at 5 uM measured after 24 hrs incubation by MTT assay relative to control; type: toxicity, cell-based; settings: read-out: Activity
RAW264.7 [2] = assay: Anti-inflammatory activity against mouse RAW264.7 cells assessed as inhibition of LPS-induced NO production at 5 uM measured after 24 hrs incubation by Griess assay relative to control; type: functional
RAW264.7 [3] = assay: Anti-inflammatory activity against mouse RAW264.7 cells assessed as inhibition of LPS-induced NO production measured after 24 hrs incubation by Griess assay; type: functional, cell-based; settings: RAW264.7, 24 h
RAW264.7 [4] = assay: Anti-inflammatory activity against mouse RAW264.7 cells assessed as inhibition of LPS-induced TNFalpha level pretreated for 1 hr followed by induced with LPS measured after 24 hrs by ELISA; type: functional, cell-based; settings: dose 2.5-20 µM, time 25.0 hrs
RAW264.7 [5] = assay: Anti-inflammatory activity against mouse RAW264.7 cells assessed as inhibition of LPS-induced COX2 level pretreated for 1 hr followed by induced with LPS measured after 24 hrs by ELISA; type: functional, cell-based; settings: dose 2.5-20 µM, time 25.0 hrs

IC50 (RAW264.7 [3]) | Compound | viability at 24 h, 5 µM [1] | inhibition at 5 µM (RAW264.7 [2]) | inhibition (RAW264.7 [4]) | inhibition (RAW264.7 [5])
 | C[C@]12CC[C@H]3[C@@H](CC=C4C[C@@H](O)CC[C@@]43C)[C@@H]1CC[C@@H]2C1=NN(C2=NC(=O)CS2)C(c2ccc(S(C)(=O)=O)cc2)C1 (some centres undefined) | 74.5% | 47.3% |  | 
12.2 µM | C[C@]12CC[C@H]3[C@@H](CC=C4C[C@@H](O)CC[C@@]43C)[C@@H]1CC[C@@H]2C1=NN(C2=NC(=O)CS2)C(c2ccccc2Cl)C1 (some centres undefined) | 81.1% | 52.6% |  | 
3.8 µM | C[C@@H]1C[C@H]2[C@@H]3CCC4=CC(=O)C=C[C@]4(C)[C@@]3(F)[C@@H](O)C[C@]2(C)[C@@]1(O)C(=O)CO [DEXAMETHASONE] | 92% | 42.3% | Dose-Dependent Effect | Dose-Dependent Effect
 | CSc1ccc(C2CC([C@H]3CC[C@H]4[C@@H]5CC=C6C[C@@H](O)CC[C@]6(C)[C@H]5CC[C@]34C)=NN2C2=NC(=O)CS2)cc1 (some centres undefined) | 82.2% | 45.2% |  | 
2.9 µM | Cc1cccc(C2CC([C@H]3CC[C@H]4[C@@H]5CC=C6C[C@@H](O)CC[C@]6(C)[C@H]5CC[C@]34C)=NN2C2=NC(=O)CS2)c1 (some centres undefined) | 75.9% | 51.9% |  | 
 | COc1ccccc1C1CC([C@H]2CC[C@H]3[C@@H]4CC=C5C[C@@H](O)CC[C@]5(C)[C@H]4CC[C@]23C)=NN1C1=NC(=O)CS1 (some centres undefined) | 70% | 55.5% |  | 
 | COc1ccc(C2CC([C@H]3CC[C@H]4[C@@H]5CC=C6C[C@@H](O)CC[C@]6(C)[C@H]5CC[C@]34C)=NN2C2=NC(=O)CS2)cc1 (some centres undefined) | 95.9% | 30.7% |  | 
 | C[C@]12CC[C@H]3[C@@H](CC=C4C[C@@H](O)CC[C@@]43C)[C@@H]1CC[C@@H]2C1=NN(C2=NC(=O)CS2)C(c2ccccc2OCc2ccccc2)C1 (some centres undefined) | 69% | 48.2% |  | 
5.41 µM | C[C@]12CC[C@H]3[C@@H](CC=C4C[C@@H](O)CC[C@@]43C)[C@@H]1CC[C@@H]2C1=NN(C2=NC(=O)CS2)C(c2ccccc2F)C1 (some centres undefined) | 86.4% | 46.8% |  | 
